Values of other authors as cited in PMC12308805, “Ultrahigh-Throughput Virtual Screening Strategies against PPI Targets: A Case Study of STAT Inhibitors” (Journal of Chemical Information and Modeling, 2025).
Square brackets hold non-standard residues; d marks the D form. Peptide text beside a SMILES is read from it. * marks the point of attachment. pY = N[C@@H](Cc1ccc(OP(=O)(O)O)cc1)C(=O)O; Hyp = O=C(O)[C@@H]1C[C@@H](O)CN1; Isobutyryl = CC(C)C(=O)*; Cbz = O=C(OCc1ccccc1)*

Test system: STAT3
Details: cited from earlier work

| SMILES | Type (known STAT3 active) |
| --- | --- |
| CC(C)C[C@H](NC(=O)/C=C/c1ccc(OP(=O)(O)O)cc1)C(=O)N1CCC[C@H]1C(=O)N[C@H](C)CCC(N)=O [CHEMBL578635] | Active |
| CC(C)C[C@H](NC(=O)/C=C/c1ccc(OP(=O)(O)O)cc1)C(=O)N1CCC[C@H]1C(=O)N[C@H](C)COC(N)=O [CHEMBL584376] | Active |
| CC(C)C[C@H](NC(=O)[C@H](Cc1ccc(OP(=O)(O)O)cc1)NC(=O)OCc1ccccc1)C(=O)N1CCC[C@H]1C(=O)N[C@@H](CCC(N)=O)C(=O)N[C@H](C(N)=O)[C@@H](C)O [CHEMBL435121] (Cbz-[pY]LPQT-NH2) | Active |

Same assay, conditions: sheet 6QHD_actives_decoys, retrospective screening set for STAT3 SH2 domain (PDB 6QHD); decoys are presumed inactives, not tested; ref DUD-E; cited from earlier work

| SMILES | Type |
| --- | --- |
| CCCCNC(=O)[C@@H](c1cc([N+](=O)[O-])ccc1Cl)N(Cc1ccc(C)o1)C(=O)c1ccccc1O [Decoy813] | Inactive (Decoy) |
| CCOC(=O)CNC(=O)[C@H](c1ccc(OC)cc1)N(C(=O)c1snc(C(N)=O)c1N)c1cccc(C)c1 [Decoy735] | Inactive (Decoy) |
| CCCCN/N=C(C(=O)OC)/C(C(=O)OC)=C(\O)C(=O)Nc1nc2ccc([N+](=O)[O-])cc2s1 [Decoy925] | Inactive (Decoy) |
| CCCn1c(N)c(N(CCOC)C(=O)Cc2coc3cc(C)c(C(C)C)cc23)c(=O)[nH]c1=O [Decoy953] | Inactive (Decoy) |
| CNC(=O)[C@H](CC(C)C)NC(=O)[C@H](Cc1cnc[nH]1)NC(=O)[C@@H](C)NC(=O)[C@@H](NC(=O)[C@H](C)NC(=O)[C@H](Cc1c[nH]c2ccccc12)NC(=O)[C@H](Cc1cnc[nH]1)NC(=O)C(C)C)C(C)C [Decoy806] (Isobutyryl-HWAV[dA]HL-NHMe) | Inactive (Decoy) |
| CCN1C[C@]2(COC)[C@H](O)C[C@H](OC)[C@@]34[C@@H]2[C@@H](OC)[C@@H]([C@@H]13)[C@]1(OC(C)=O)[C@H]2[C@@H](OC(=O)c3ccccc3)[C@](O)(C[C@]24O)[C@@H](OC)[C@@H]1O [Decoy802] | Inactive (Decoy) |
| C=CCOC(=O)c1sc(NC(=O)[C@@H](CC)n2c(N)nnc2SCc2ccccc2Cl)nc1C [Decoy920] | Inactive (Decoy) |
| CCCOc1ccc([C@@H]2c3c(n[nH]c3-c3cc(C)cc(C)c3O)C(=O)N2CCCOC(C)C)cc1OCC [Decoy897] | Inactive (Decoy) |
| CCOC(=O)C1=C(C)NC(=O)N[C@H]1c1ccc(OCC(=O)N/N=C/c2ccc(SC)cc2)c(OC)c1 [Decoy818] | Inactive (Decoy) |
| Cc1cc(NS(=O)(=O)c2ccc(NC(=O)CCCC(=O)Nc3ccc(S(=O)(=O)Nc4cc(C)on4)cc3)cc2)no1 [Decoy746] | Inactive (Decoy) |
| CCN(CC)c1ccc2c(-c3ccc(S(=O)(=O)NCCSS(C)(=O)=O)cc3S(=O)(=O)[O-])c3ccc(=[N+](CC)CC)cc-3oc2c1 [Decoy829] | Inactive (Decoy) |
| C[C@H](OC(=O)c1sccc1NS(C)(=O)=O)C(=O)NCC(=O)Nc1ccc(F)c(F)c1F [Decoy852] | Inactive (Decoy) |
| COc1cc(Cc2cc(OC)c(OC)cc2NS(=O)(=O)c2ccc3c(c2)NC(=O)CO3)c(NS(=O)(=O)c2ccc3c(c2)NC(=O)CO3)cc1OC [Decoy940] | Inactive (Decoy) |
| CNC(=O)[C@H](CC(C)C)NC(=O)[C@H](Cc1c[nH]cn1)NC(=O)[C@@H](C)NC(=O)[C@@H](NC(=O)[C@H](C)NC(=O)[C@H](Cc1c[nH]c2ccccc12)NC(=O)[C@H](Cc1c[nH]cn1)NC(=O)C(C)C)C(C)C [Decoy804] (Isobutyryl-HWAV[dA]HL-NHMe) | Inactive (Decoy) |

Same assay, conditions: sheet 6QHD_actives_decoys; known STAT3 actives of the retrospective screening set; ref ChEMBL / literature; cited from earlier work

| SMILES | Type (known STAT3 active) |
| --- | --- |
| NC(=O)CC[C@H](NC(=O)[C@@H]1CC[C@@H]2CC[C@H](NC(=O)/C=C/c3ccc(OP(=O)(O)O)cc3)C(=O)N21)C(=O)NCc1ccccc1 [CHEMBL445970] | Active |
| NC(=O)CC[C@H](NC(=O)[C@@H]1Cc2cccc3c2N1C(=O)[C@@H](NC(=O)c1cc2cc(OP(=O)(O)O)ccc2[nH]1)CC3)C(=O)NCc1ccccc1 [CHEMBL452194] | Active |
| CC(=O)N[C@@H](Cc1ccc(OP(=O)(O)O)cc1)C(=O)N[C@@H](CC(C)C)C(=O)N1C[C@H](O)C[C@H]1C(=O)N[C@@H](CCC(N)=O)C(=O)N[C@H](C(N)=O)[C@@H](C)O [CHEMBL372429] (Ac-[pY]L[Hyp]QT-NH2) | Active |
| CC(C)NC(=O)[C@H](CCC(N)=O)NC(=O)[C@@H]1Cc2cccc3c2N1C(=O)[C@@H](NC(=O)/C=C/c1ccc(OP(=O)(O)O)cc1)CC3 [CHEMBL447460] | Active |
| CC(=O)N[C@@H](Cc1ccc(OP(=O)(O)O)cc1)C(=O)N[C@@H](CC(C)C)C(=O)N1CCC[C@H]1C(=O)N[C@@H](CCC(N)=O)C(N)=O [CHEMBL194516] (Ac-[pY]LPQ-NH2) | Active |
| CC(=O)N[C@@H](Cc1ccc(OP(=O)(O)O)cc1)C(=O)N[C@@H](CC(C)C)C(=O)N1CCC[C@H]1C(=O)N[C@@H](CCC(N)=O)C(=O)O [CHEMBL382544] (Ac-[pY]LPQ-OH) | Active |

Same assay, conditions: sheet 6QHD_actives_decoys; retrospective screening set for STAT3 SH2 domain (PDB 6QHD); […]; ref DUD-E; cited from earlier work

| SMILES | Type |
| --- | --- |
| COc1cc(NS(=O)(=O)c2ccc(NC(=O)CCCCC(=O)Nc3ccc(S(=O)(=O)/N=c4/cc(OC)nc(OC)[nH]4)cc3)cc2)nc(OC)n1 [Decoy429] | Inactive (Decoy) |
| CC[C@H](C)N1C(=O)NC(=O)/C(=C/Nc2ccc3c(c2)C[C@]2(C(=O)NC(=O)N=C2O)[C@H]2CN(C)CCN32)C1=O [Decoy502] | Inactive (Decoy) |
| COc1ccc(S(=O)(=O)Nc2ccc(S(=O)(=O)Nc3nc(C)cc(C)n3)cc2)cc1F [Decoy560] | Inactive (Decoy) |

Same assay, conditions: sheet 6QHD_actives_decoys; retrospective screening set for STAT3 SH2 domain (PDB 6QHD); decoys generated with DUD-E and presumed inactive, not tested; ref DUD-E; cited from earlier work

| SMILES | Type |
| --- | --- |
| OC[C@@]1(O)CO[C@H](OC[C@H]2O[C@@H](O[C@H](CCCCc3ccc(O)cc3)CCc3ccc(O)cc3)[C@H](O[C@H]3OC[C@](O)(CO)[C@H]3O)[C@@H](O)[C@@H]2O)[C@@H]1O [Decoy685] | Inactive (Decoy) |
| COc1cc(NC(=O)c2cnn3c2N[C@H](c2cc(OC)c(OC)c(OC)c2)C[C@@H]3C(F)(F)F)cc([N+](=O)[O-])c1 [Decoy512] | Inactive (Decoy) |
| CNC(=O)[C@H](CC(C)C)NC(=O)[C@H](Cc1c[nH]cn1)NC(=O)[C@@H](C)NC(=O)[C@@H](NC(=O)[C@H](C)NC(=O)[C@H](Cc1c[nH]c2ccccc12)NC(=O)[C@H](Cc1cnc[nH]1)NC(=O)C(C)C)C(C)C [Decoy626] (Isobutyryl-HWAV[dA]HL-NHMe) | Inactive (Decoy) |
| CC[C@H](C)[C@H](NC(=O)CNC(=O)CCc1c(C)c2cc3c(C)c(C)oc3c(C)c2oc1=O)C(=O)NCCCCCC(=O)O [Decoy720] | Inactive (Decoy) |
| CC(C)CNC(=O)c1ccc2c(=O)n(C(C)C)c3nn(CC(=O)Nc4ccc(F)cc4)c(=O)n3c2c1 [Decoy378] | Inactive (Decoy) |
| O=C(Nc1ccc(S(=O)(=O)Nc2ncccn2)cc1)c1cccc(C(=O)Nc2ccc(S(=O)(=O)Nc3ncccn3)cc2)n1 [Decoy668] | Inactive (Decoy) |
| COc1cc([C@@H]2C(C(=O)c3ccc4c(c3)OCCO4)=C(O)C(=O)N2CCCn2ccnc2)cc(Br)c1O [Decoy647] | Inactive (Decoy) |
| O=C(NCCCCCCNC(=O)OCCN[C@H]1CCS(=O)(=O)C1)OCCN[C@H]1CCS(=O)(=O)C1 [Decoy454] | Inactive (Decoy) |
| C=CCn1c(CNc2ccc(Cl)cc2)nnc1S[C@@H](C)C(=O)N/N=C/c1ccc([N+](=O)[O-])s1 [Decoy574] | Inactive (Decoy) |
| CCOC(=O)c1sc(NC(=O)CCCS(=O)(=O)c2nc(-c3ccccc3OC)cc(C(F)(F)F)n2)c(C(N)=O)c1C [Decoy482] | Inactive (Decoy) |
| Nc1ncnc2c1ncn2[C@H]1O[C@@H](CO[P@@](=O)(O)O[P@@](=O)(O)OC[C@H](O)[C@H](O)[C@H](O)C=O)[C@@H](O)[C@@H]1O [Decoy403] | Inactive (Decoy) |
| O=C(O)CN(CC(=O)O)[C@H](CCCCNC(=S)Nc1ccc(-c2c3ccc(=O)cc-3oc3cc(O)ccc23)c(C(=O)O)c1)C(=O)O [Decoy503] | Inactive (Decoy) |
| C[C@@]12CCC[C@@](C)(C(=O)O[C@@H]3O[C@@H](CO)[C@@H](O)[C@@H](O)[C@H]3O)[C@H]1CC[C@]13C[C@H](CC[C@H]12)[C@@](CO)(O[C@@H]1O[C@@H](CO)[C@@H](O)[C@@H](O)[C@H]1O)C3 [Decoy524] | Inactive (Decoy) |
| COCCN(C/C(O)=N/c1nc(-c2ccc(Cl)cc2)cn1-c1ccc(OC)cc1)C(=O)C1CCCC1 [Decoy663] | Inactive (Decoy) |
| COc1ccc(-n2c(=O)[nH]c3cc([C@@H]4N[C@@H](c5ccc(OC)c(OC)c5)NO4)ccc3c2=O)cc1 [Decoy550] | Inactive (Decoy) |
| O=C(O)CN(CC(=O)O)[C@@H](CCCCNC(=S)Nc1ccc(-c2c3ccc(=O)cc-3oc3cc(O)ccc23)c(C(=O)O)c1)C(=O)O [Decoy515] | Inactive (Decoy) |
| CC(=O)N[C@@H]1[C@H]([C@H](O)[C@H](O)CO)O[C@@](O[C@H]2[C@@H](O)[C@@H](O[C@@H]([C@@H](O[C@@H]3O[C@@H](C)[C@@H](O)[C@H](O)[C@@H]3O)[C@H](O)C=O)[C@H](O)CO)O[C@@H](CO)[C@H]2O)(C(=O)O)C[C@@H]1O [Decoy381] | Inactive (Decoy) |
| CCOc1ccc(-c2n[nH]c3c2[C@H](c2cc(OC)c(OC(C)=O)c(OC)c2)C(C#N)=C(N)O3)cc1 [Decoy509] | Inactive (Decoy) |
| CCOC(=O)c1sc(Nc2ccc(NC(=O)C[C@@H](NCCOC)C(=O)O)cc2)nc1C [Decoy654] | Inactive (Decoy) |
| CCCCCOc1ccc([C@@H]2C(C(=O)c3c(C)nc4ccccn34)=C(O)C(=O)N2CCN(C)C)cc1OCC [Decoy423] | Inactive (Decoy) |
| O=C(CSc1n[nH]c(N/N=C/c2ccc(OCc3ccc(F)cc3)o2)n1)Nc1nccs1 [Decoy487] | Inactive (Decoy) |
| CCOC(=O)c1ccc(NC(=O)COc2cc(Br)c([C@H]3NC(=S)N=C(C)/C3=C(/O)OC)cc2OC)cc1 [Decoy489] | Inactive (Decoy) |
| C=C1N=C2C[C@H](c3ccc(OC)c(OC)c3)CC(=O)C2[C@H](c2cc(Br)c(O)c(OCC)c2)C1C(=O)OCCOCC (some centres unmarked) [Decoy369] | Inactive (Decoy) |
| CC[C@@H](c1nnnn1C(C)(C)CC)N(Cc1ccc(OC)cc1)Cc1cc2c(C)ccc(C)c2[nH]c1=O [Decoy452] | Inactive (Decoy) |
